From article PMC10860701 (ACS Medicinal Chemistry Letters, 2024)
Entries after “also recorded” stand apart in the source; their conditions may differ.

Assays:
[1] = test system: HT-22 cells; test: TNFα-induced ROS; format: cell-based, mouse; details: for effect on TNFα-induced ROS, in words / ROS suppression at 40 μM: 1 μg/mL TNFα; for effect on TNFα-induced ROS, in words: all concentrations tested; for ROS suppression at 40 μM: 40 μM compound, Figure 4A
[2] = target: NAMPT (Homo sapiens, UniProt P43490); test: NAMPT coupled enzyme activity assay; format: biochemical
Chain of NAMPT (P43490 whole entry): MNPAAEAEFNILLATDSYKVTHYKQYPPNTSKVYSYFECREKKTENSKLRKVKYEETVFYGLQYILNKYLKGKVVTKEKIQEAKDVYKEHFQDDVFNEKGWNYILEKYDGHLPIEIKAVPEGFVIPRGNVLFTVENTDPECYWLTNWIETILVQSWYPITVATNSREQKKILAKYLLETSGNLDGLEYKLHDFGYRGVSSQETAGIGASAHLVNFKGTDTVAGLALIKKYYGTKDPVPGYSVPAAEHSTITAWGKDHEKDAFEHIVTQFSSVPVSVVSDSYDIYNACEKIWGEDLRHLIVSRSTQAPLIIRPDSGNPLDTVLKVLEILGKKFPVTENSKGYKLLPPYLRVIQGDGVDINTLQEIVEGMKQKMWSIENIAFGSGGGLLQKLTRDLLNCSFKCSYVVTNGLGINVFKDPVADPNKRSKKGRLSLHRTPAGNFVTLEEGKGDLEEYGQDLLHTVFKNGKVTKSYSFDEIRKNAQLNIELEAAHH

[3] = test system: THP-1 cells; test: Measurement of cellular NAD+ levels in THP-1 cell cultures; format: cell-based, human; details: for ability to raise NAD+ levels compared with parent NP-A3-B2: initial screening, 3 μM, 24 h, data not shown
[4] = test system: HT-22 cells; test: Glutamate-induced ROS; format: cell-based, mouse; details: 75 mM glutamate, 20 μM and 40 μM compound, Figure 4D

With `COc1ccc(CN(CCC2(C(C)C)CCOC(C)(C)C2)C(=O)c2ccsc2)cc1` (stereo not shown) [JGB-1-127] the “effect on TNFα-induced ROS, in words” value [1] was “did not inhibit ROS generation”.

In the case of `O=C(NCc1ccncc1)Nc1ccc(S(=O)(=O)N2CC3CCC(C2)O3)cc1` [SBI-797812, reference compound], the “effect on TNFα-induced ROS, in words” value [1] is reported as “no significant effect on ROS”.

For `COc1ccc(CN(CCC2(C(C)C)CCOC(C)(C)C2)C(=O)c2cnc[nH]2)cc1` (stereo not shown) [JGB-1-147], the “NAMPT enzyme activity, in words” value [2] was “inhibitory activity; also recorded: inhibits NAMPT”.

For `CC(C)C1(CCN(Cc2ccc(N(C)C)cc2)C(=O)c2ccco2)CCOC(C)(C)C1` (stereo not shown) [JGB-1-155], the “concentration response for FK866 in the presence of compound” value ([3]; THP-1 NAD+, Figure 3B) was “right-shifted”, the “potency in THP-1 cell cultures relative to NP-A3-B2” value ([3]; full concentration-response, NAD+) was “improved potency” and the “ability to raise NAD+ levels compared with parent NP-A3-B2” value [3] was “significantly greater ability to raise NAD^+ levels”. For the same compound, the “ROS suppression at 40 μM” value [1] was “significantly suppressed ROS”, the “reduction of TNFα-induced ROS, confirmation assay” value ([1]; 20 μM and 40 μM compound, Figure 4B) was “significant reduction” and the “ROS levels under glutamate insult” value [4] was “decreased ROS levels below that of the vehicle-treated control”.

For `COc1ccc(CN(CCC2(C(C)C)CCOC(C)(C)C2)C(=O)c2ccco2)cc1` (stereo not shown) [NP-A3-B2], the “ROS suppression at 40 μM” value [1] was “significantly suppressed ROS”.

With `COc1ccc(CN(CCC2(C(C)C)CCOC(C)(C)C2)C(=O)c2cccs2)cc1` (stereo not shown) [JGB-1-137] the “ROS suppression at 40 μM” value [1] was “significantly suppressed ROS”.

For `CC(C)C1(CCN(Cc2ccc3[nH]ccc3c2)C(=O)c2ccco2)CCOC(C)(C)C1` (stereo not shown) [JGB-1-134], the “ability to raise NAD+ levels compared with parent NP-A3-B2” value [3] was “significantly greater ability to raise NAD^+ levels” and the “effect on TNFα-induced ROS, in words” value [1] was “did not inhibit ROS generation”.
